The record followed here is patent US20140011676A1, “1, 8 -DIAZASPIRO [4.5] DECANE- 2, 4 -DIONE DERIVATIVES USEFUL AS PESTICIDES” (SYNGENTA PARTICIPATIONS AG, priority 2010, published 2014).

Like-named read-outs stand apart in the source and are kept apart here.

Data set [1] deals with Myzus persicae (green peach aphid). To be noted: foliar, 144 h, read-out: activity (mortality) against Myzus persicae.
Data set [2] concerns Thrips tabaci (onion thrips). To be noted: foliar, 144 h, read-out: activity (mortality) against Thrips tabaci.
In data set [3] the test system is cabbage plants. Conditions: in vivo, 6 days, 200 ppm.
The subject of data set [4] is Myzus persicae (green peach aphid). Description: Activity against Myzus persicae on cabbage plants, feeding/residual contact activity, spray chamber. To be noted: 144 h, 6 days after treatment. Format: in vivo.
Data set [5] has the same test system. The data set can be described thus: Activity against Myzus persicae, mixed population, systemic/feeding activity, curative (pea seedlings). To be noted: 144 h, read-out: activity (mortality) against Myzus persicae, systemic.
Data set [6] relates to Tetranychus urticae (two-spotted spider mite). The data set can be described thus: whole plant or invertebrate. Conditions: foliar, 192 h, read-out: activity (egg, larval and adult mortality) against Tetranychus urticae.

The mortality is the percentage killed. Consider `CON1CCC2(CC1)C(=O)C(Cl)(c1cc(Br)c(C)cc1C)C(=O)N2C` (stereo not shown) [Compound P1.2], for which the mortality at 400 ppm in data set [1] and in data set [2] was over 80% in each case. In addition, the “damage to cabbage plants (phytotoxicity)” value in data set [3] is recorded as at most 10%. For the same compound, in data set [4], the mortality at 200 ppm was at least 80%.

With `CON1CCC2(CC1)C(=O)C(c1c(C)cc(C)cc1C)([N+](=O)[O-])C(=O)N2C` (stereo not shown) [Compound P1.13, 8-Methoxy-1-methyl-3-nitro-3-(2,4,6-trimethyl-phenyl)-1,8-diaza-spiro[4.5]decane-2,4-dione], in data set [1], the mortality at 400 ppm is over 80%. Also, the “damage to cabbage plants (phytotoxicity)” value in data set [3] was at most 10%. The mortality at 200 ppm in data set [4] is at least 80%.

As for `CON1CCC2(CC1)C(=O)C(Cl)(c1c(C)cccc1C)C(=O)N2C` (stereo not shown) [Compound P1.7], the mortality at 400 ppm in data set [5] was over 80%. The “damage to cabbage plants (phytotoxicity)” value in data set [3] is on record as at most 10%. The same compound yielded a mortality at 200 ppm in data set [4] of at least 80%.

For `CON1CCC2(CC1)C(=O)C(Cl)(c1c(C)cc(C)cc1C)C(=O)N2CC1CCCO1` (stereo not shown) [Compound P1.8], in data set [3], the “damage to cabbage plants (phytotoxicity)” value is at most 10%. Also, in data set [4], the mortality at 200 ppm was at least 80%.

Turning to `CON1CCC2(CC1)C(=O)C(Cl)(c1cc(C)c(C)cc1C)C(=O)N2CC1CC1` (stereo not shown) [Compound P1.6], in data set [3], the “damage to cabbage plants (phytotoxicity)” value is at most 10%. The same compound gave a mortality at 200 ppm in data set [4] of at least 80%.

As for `COCCN1C(=O)C(Cl)(c2c(C)cc(Cl)cc2C)C(=O)C12CCN(OC)CC2` (stereo not shown) [Compound P1.14], in data set [1], the mortality at 400 ppm is over 80%. In addition, the “damage to cabbage plants (phytotoxicity)” value in data set [3] was at most 10%. This compound also registered a mortality at 200 ppm in data set [4] of at least 80%.

Turning to `CON1CCC2(CC1)C(=O)C(Cl)(c1cc(C)ccc1C)C(=O)N2C` (stereo not shown) [Compound P1.5, 3-Chloro-3-(2,5-dimethyl-phenyl)-8-methoxy-1-methyl-1,8-diaza-spiro[4.5]decane-2,4-dione], in data set [3], the “damage to cabbage plants (phytotoxicity)” value is listed as at most 10%. In data set [4], the mortality at 200 ppm is at least 80%.

A word on the melting point: it is the temperature of the solid-liquid transition. For the compound `COc1cc(Cl)cc(C)c1C1(Cl)C(=O)N(C)C2(CCN(OC)CC2)C1=O` (stereo not shown) [Compound P1.10], the melting point lay within 115 to 117 °C.

`CON1CCC2(CC1)C(=O)C(Cl)(c1c(C)cc(Br)cc1C)C(=O)N2C` (stereo not shown) [Compound P1.3]: the mortality at 400 ppm in data set [1] and in data set [5] was over 80% in each case. The “damage to cabbage plants (phytotoxicity)” value in data set [3] is at most 10%. In addition, in data set [4], the mortality at 200 ppm was at least 80%.

On to `CON1CCC2(CC1)C(=O)C(Cl)(c1cc(C)c(C)cc1Cl)C(=O)N2C` (stereo not shown) [Compound P1.1, 3-Chloro-3-(2-chloro-4,5-dimethyl-phenyl)-8-methoxy-1-methyl-1,8-diaza-spiro[4.5]decane-2,4-dione], for which the mortality at 400 ppm in data set [1] and in data set [6] was over 80% throughout.

In the case of `CCc1cc(Cl)cc(C)c1C1(Cl)C(=O)N(C)C2(CCN(OC)CC2)C1=O` (stereo not shown) [Compound P1.11], the mortality at 400 ppm in data set [1] was over 80%. Moreover, in data set [3], the “damage to cabbage plants (phytotoxicity)” value is given as at most 10%. Also, the mortality at 200 ppm in data set [4] was at least 80%.

Take `CON1CCC2(CC1)C(=O)C(Cl)(c1c(C)ccc(-c3ccc(Cl)cc3)c1C)C(=O)N2C` (stereo not shown) [Compound P1.12]: the mortality at 400 ppm in data set [1] was over 80%. Besides, the “damage to cabbage plants (phytotoxicity)” value in data set [3] is at most 10%. Moreover, the mortality at 200 ppm in data set [4] is at least 80%.

As to `CON1CCC2(CC1)C(=O)C(Cl)(c1c(C)cc(C)cc1C)C(=O)N2C` (stereo not shown) [Compound P1.4], the mortality at 400 ppm in data set [1], in data set [5] and in data set [2] was over 80% in each case. The “damage to cabbage plants (phytotoxicity)” value in data set [3] is listed as at most 10%. The mortality at 200 ppm in data set [4] was at least 80%.
